Active and inactive are the calls of the source. No cut-off for these calls is given here.
Columns and labels:
Oocyte [1] = assay: Activity at rat GABAA alpha-1-beta-2-gamma-2L receptor expressed in Xenopus laevis oocytes assessed as gating effect at 10 uM by electrophysiology method; format: cell-based
Oocyte [2] = assay: Activity at rat GABAA alpha-1-beta-2-gamma-2L receptor expressed in Xenopus lavies oocytes assessed as ratio of effect on current at 1 uM drug to absence of compound by electrophysiology method; format: cell-based
Oocyte [3] = assay: Activity at rat GABAA alpha-1-beta-2-gamma-2L receptor expressed in Xenopus lavies oocytes assessed as ratio of effect on current at 0.1 uM drug to absence of compound by electrophysiology method; format: cell-based
Xenopus laevis [4] = assay: Anesthetic effect on Xenopus lavies tadpole assessed as loss of righting reflex; format: functional
Xenopus laevis [5] = assay: Anesthetic effect on Xenopus lavies tadpole assessed as loss of swimming reflex at 10 uM; format: functional, organism-based
[6] = Displacement of [35S]TBPS from GABAA receptor in rat brain membrane; format: cell membranes
Oocyte [7] = assay: Activity at rat GABAA alpha-1-beta-2-gamma-2L receptor expressed in Xenopus lavies oocytes assessed as ratio of effect on current at 10 uM drug to absence of compound by electrophysiology method; format: cell-based
Xenopus laevis [8] = assay: Anesthetic effect on Xenopus lavies tadpole assessed as loss of swimming reflex; format: functional
[9] = (§1) Activity at rat GABAA alpha-1Q241L/Y410F receptor mutant expressed in HEK293 cells assessed as macroscopic current amplitude by electrophysiological method; format: cell-based
HEK293 [10] = assay: as §1; format: cell-based
[11] = (§2) Activity at rat GABAA alpha-1-beta-2-gamma-2L receptor expressed in HEK293 cells assessed as macroscopic current amplitude by electrophysiological method; format: cell-based
HEK293 [12] = assay: as §2; format: cell-based

SMILES	Ratio (Oocyte [1])	Ratio (Oocyte [2])	Ratio (Oocyte [3])	ED50 (Xenopus laevis [4])	Activity (Xenopus laevis [5])	IC50 [6]	Ratio (Oocyte [7])	ED50 (Xenopus laevis [8])	EC50 [9]	Activity (HEK293 [10])	EC50 [11]	Activity (HEK293 [12])
C[C@]12CC[C@@H](O)C[C@@H]1CC[C@@H]1[C@@H]2CC[C@]2(C)C(=O)CC[C@@H]12 [ANDROSTERONE]	0.02	1.41	0.97	3380 nM	inactive	410 nM	5.44					
C[C@]12C[C@H]3C[C@H]4CC[C@@H](O)C[C@@H]4C[C@@H]3C[C@@H]1CCC2=O	0.28	5.03	1.1	1860 nM		250 nM	28.4	5480 nM				
C[C@]12CC[C@@H]3C[C@H](CCO)CC[C@H]3[C@@H]1CC[C@@]21CO1	0.04	4.11	1.1	3170 nM		1580 nM	20	5480 nM				
C[C@]12C[C@H]3CC[C@@H]4C[C@@H](O)CC[C@H]4[C@@H]3C[C@@H]1CCC2=O	0.05	1.32	0.92	3170 nM	inactive	1440 nM	6.14					
C[C@]12CC[C@@H]3C[C@H](CCO)CC[C@H]3[C@@H]1CCC2=O	0.03	1.03	0.99	16400 nM	inactive	4170 nM	1.05					
C[C@]12C[C@H]3CC[C@@H]4C[C@@H](O)CC[C@H]4[C@@H]3C[C@@H]1CC[C@@]21CO1	0.15	15.7	2.16	200 nM		40 nM	29.7	870 nM	130 nM	220%	340 nM	262%
C[C@]12C[C@H]3CC[C@H](CCO)C[C@@H]3C[C@@H]1CCC2=O	-0.02	1	1	4010 nM	inactive	5010 nM	2.42					
C[C@]12C[C@H]3C[C@H]4CC[C@@H](O)C[C@@H]4C[C@@H]3C[C@@H]1CC[C@@]21CO1	0.16	10.8	1.53	480 nM		60 nM	26.3	1730 nM	390 nM	237%	410 nM	294%
C[C@]12CC[C@@H](O)C[C@@H]1CC[C@@H]1[C@@H]2CC[C@@]2(C)[C@H]1CC[C@@]21CO1	0.22	21.9	3.11	1350 nM		110 nM	33.7	2760 nM	130 nM	251%	440 nM	269%
C[C@]12C[C@H]3CC[C@H](CCO)C[C@@H]3C[C@@H]1CC[C@@]21CO1	0.03	1.54	0.86	3460 nM	inactive	1170 nM	5.37					

— ChEMBL document CHEMBL1143225, “Neurosteroid analogues. 14. Alternative ring system scaffolds: GABA modulatory and anesthetic actions of cyclopenta[b]phenanthrenes and cyclopenta[b]anthracenes” (J Med Chem, 2008)
